Measured values as given in patent US9833497B2, “Human originated EGF domain proteins and use of the same” (CHENGDU SOURCEBIO LIMITED-LIABILITY COMPANY, priority 2013, dated 2017).

What was measured:
Assay type in all cases: cell-based
[1] = tested on: Proteus mirabilis; assay: MIC against Gram-negative bacteria: Proteus mirabilis; conditions: 5×10^5 CFU/mL
Experimental: (§1) 1. Gram-negative bacteria, such as E. coli BL21, Pseudomonas aeruginosa, Klebsiella pneumonia, Enterobacter cloacae, Aeromonas hydrophila, Citrobacter diversus, Moraxella catarrhalis, Proteus mirabilis, Proteus vulgaris, Serratia marcescens, etc were streaked on solid LB medium and cultured respectively. Then, typical clones were picked, inoculated into common liquid LB medium respectively, and cultured at 37° C. with shaking at 185 rpm until the McFarland specific turbidity was 0.5. The bacterial culture of each of Gram-negative bacteria was centrifuged at 4000×g for 3 min, the supernatant was discarded, and the thalli were resuspended with fresh LB medium.
(§2) 2. The above-mentioned bacterial suspensions were diluted and inoculated into 96-well plates with the final concentration of the bacterial suspension being 5×10^5 CFU/mL per well.
(§3) 3. Each of the purified human-originated EGF domain proteins (PRT1 to PRT1498 in Table 1) was added to each of the above wells and subjected to two-fold serial dilution in concentration. Three parallel wells were set up for each concentration in the gradient.
(§4) 4. The above-mentioned 96-well plates were placed and cultured at 37° C. in shaking incubator shaking at 175 rpm. […] The minimal inhibitory concentration MIC is defined as the lowest concentration of the recombinant protein at which there is no growth of the bacteria.

[2] = tested on: Klebsiella pneumonia; assay: MIC against Gram-negative bacteria: Klebsiella pneumonia; conditions: 5×10^5 CFU/mL
Experimental: as §1, §2, §3, §4

[3] = tested on: Enterobacter cloacae; assay: MIC against Gram-negative bacteria: Enterobacter cloacae; conditions: 5×10^5 CFU/mL
Experimental: as §1, §2, §3, §4

[4] = tested on: Serratia marcescens; assay: MIC against Gram-negative bacteria: Serratia marcescens; conditions: 5×10^5 CFU/mL
Experimental: as §1, §2, §3, §4

[5] = tested on: Pseudomonas aeruginosa; assay: MIC against Gram-negative bacteria: Pseudomonas aeruginosa; conditions: 5×10^5 CFU/mL
Experimental: as §1, §2, §3, §4

[6] = tested on: E. coli BL21; assay: MIC against Gram-negative bacteria: E. coli BL21; conditions: 5×10^5 CFU/mL
Experimental: as §1, §2, §3, §4

[7] = tested on: Citrobacter diversus; assay: MIC against Gram-negative bacteria: Citrobacter diversus; conditions: 5×10^5 CFU/mL
Experimental: as §1, §2, §3, §4

[8] = tested on: E. coli DH5α; assay: Antibacterial activity: MIC and growth curve against E. coli DH5α in 96-well plate; conditions: minimal inhibitory concentration against E. coli DH5α; 96-well plate, 5×10^5 CFU/mL, 37° C., judged after 8 h
Experimental: 1. E. coli DH5α was exemplified. E. coli DH5α was streaked and cultured on LB solid medium. Then, a typical clone was picked and inoculated into common LB liquid medium, cultured at 37° C. with shaking at 185 rpm until the logarithmic growth phase was reached (OD600 of about 0.5). The bacterial culture was centrifuged at 4000×g for 3 min, the supernatant was discarded, and the thalli were resuspended with fresh LB medium.
2. The above-mentioned bacterial suspension was diluted and inoculated into a 96-well plate with the total volume of 100 μL per well and a bacterial count of 5×10^5 CFU/mL.
3. The recombinant protein hF VII-EGF1 was added to the above-mentioned wells with the final protein concentration in the well of the highest protein concentration being 50 μg/mL. Basing on this final concentration, a two-fold serial dilution was performed till a protein concentration gradient consisting of 50, 25, and 12.5 μg/mL was set up. Three parallel wells were set up for each concentration in the gradient.
as §4, with “plate was” for “plates were”, “rpm. Samples were taken every 30 min, the absorbance values were determined at 600 nm wavelength under a ultra violet spectrophotometer, and an inhibition curve was plotted.” for “rpm.”
According to the experimental procedures in Example 14, the minimal inhibitory concentrations (MIC, μg/mL) of the other human-originated EGF domain proteins (PRT2 to PRT1498 in Table 1) for E. coli DH5α were determined.

[9] = tested on: Moraxella catarrhalis; assay: MIC against Gram-negative bacteria: Moraxella catarrhalis; conditions: 5×10^5 CFU/mL
Experimental: as §1, §2, §3, §4

[10] = tested on: Aeromonas hydrophila; assay: MIC against Gram-negative bacteria: Aeromonas hydrophila; conditions: 5×10^5 CFU/mL
Experimental: as §1, §2, §3, §4

[11] = tested on: Proteus vulgaris; assay: MIC against Gram-negative bacteria: Proteus vulgaris; conditions: 5×10^5 CFU/mL
Experimental: as §1, §2, §3, §4

[12] = 10 h cultivation at 37° C., two-fold serial dilution
[13] = P. mirabilis, 10 h cultivation at 37° C.
[14] = K. pneumonia, 10 h cultivation at 37° C.
[15] = E. cloacae, 10 h cultivation at 37° C.
[16] = S. marcescens, 10 h cultivation at 37° C.
[17] = P. aeruginosa, 10 h cultivation at 37° C.
[18] = E. coli BL21, 10 h cultivation at 37° C.
[19] = C. diversus, 10 h cultivation at 37° C.
[20] = M. catarrhalis, 10 h cultivation at 37° C.
[21] = A. hydrophila, 10 h cultivation at 37° C.
[22] = P. vulgaris, 10 h cultivation at 37° C.

Substance: PRT1051 (EQKLCKLRKGNCSSTVCGQDLQSHLCMCAEGYALSRDRKYCE; listed as Homo sapiens)
- MIC P. mirabilis [1, 12]: 50 µg/mL
- MIC K. pneumonia [2, 12]: 12.5 µg/mL
- MIC E. cloacae [3, 12]: 25 µg/mL
- MIC S. marcescens [4, 12]: 50 µg/mL
- MIC P. aeruginosa [5, 12]: 25 µg/mL
- MIC E. coli BL21 [6, 12]: 12.5 µg/mL
- MIC C. diversus [7, 12]: 12.5 µg/mL
- MIC [8]: 50 µg/mL
- MIC M. catarrhalis [9, 12]: 12.5 µg/mL
- MIC A. hydrophila [10, 12]: 12.5 µg/mL
- MIC P. vulgaris [11, 12]: 12.5 µg/mL

Substance: PRT302 (DIDECVEEPEICALGTCSNTEGSFKCLCPEGFSLSSSGRRCQ; listed as Homo sapiens)
- MIC [1, 13]: 12.5 µg/mL
- MIC [2, 14]: 25 µg/mL
- MIC [3, 15]: 12.5 µg/mL
- MIC [4, 16]: 12.5 µg/mL
- MIC [5, 17]: 12.5 µg/mL
- MIC [6, 18]: 25 µg/mL
- MIC [7, 19]: 12.5 µg/mL
- MIC [8]: 12.5 µg/mL
- MIC [9, 20]: 12.5 µg/mL
- MIC [10, 21]: 12.5 µg/mL
- MIC [11, 22]: 50 µg/mL

Substance: PRT1222 (SVNYCECNPCFNGGSCQSGVDSYYCHCPFGVFGKHCE; listed as Homo sapiens)
- MIC against P. mirabilis ([1]; Proteus mirabilis, 96-well plate, 37° C., 10 h): 50 µg/mL
- MIC against K. pneumonia ([2]; Klebsiella pneumonia, 96-well plate, 37° C., 10 h): 12.5 µg/mL
- MIC against E. cloacae ([3]; Enterobacter cloacae, 96-well plate, 37° C., 10 h): 25 µg/mL
- MIC against S. marcescens ([4]; Serratia marcescens, 96-well plate, 37° C., 10 h): 12.5 µg/mL
- MIC against P. aeruginosa ([5]; Pseudomonas aeruginosa, 96-well plate, 37° C., 10 h): 50 µg/mL
- MIC against E. coli BL21 ([6]; E. coli BL21, 96-well plate, 37° C., 10 h): 25 µg/mL
- MIC against C. diversus ([7]; Citrobacter diversus, 96-well plate, 37° C., 10 h): 12.5 µg/mL
- MIC [8]: 12.5 µg/mL
- MIC against M. catarrhalis ([9]; Moraxella catarrhalis, 96-well plate, 37° C., 10 h): 25 µg/mL
- MIC against A. hydrophila ([10]; Aeromonas hydrophila, 96-well plate, 37° C., 10 h): 50 µg/mL
- MIC against P. vulgaris ([11]; Proteus vulgaris, 96-well plate, 37° C., 10 h): 25 µg/mL

Substance: PRT738 (FHTRCEEDNGGCSHLCLLSPSEPFYTCACPTGVQLQDNGRTCK; listed as Homo sapiens)
- MIC P. mirabilis ([1]; 96-well plate, 37° C., 10 h): 50 µg/mL
- MIC K. pneumonia ([2]; 96-well plate, 37° C., 10 h): 50 µg/mL
- MIC E. cloacae ([3]; 96-well plate, 37° C., 10 h): 12.5 µg/mL
- MIC S. marcescens ([4]; 96-well plate, 37° C., 10 h): 25 µg/mL
- MIC P. aeruginosa ([5]; 96-well plate, 37° C., 10 h): 25 µg/mL
- MIC E. coli BL21 ([6]; 96-well plate, 37° C., 10 h): 12.5 µg/mL
- MIC C. diversus ([7]; 96-well plate, 37° C., 10 h): 12.5 µg/mL
- MIC [8]: 50 µg/mL
- MIC M. catarrhalis ([9]; 96-well plate, 37° C., 10 h): 25 µg/mL
- MIC A. hydrophila ([10]; 96-well plate, 37° C., 10 h): 50 µg/mL
- MIC P. vulgaris ([11]; 96-well plate, 37° C., 10 h): 25 µg/mL

Substance: PRT174 (CASSPCANGGTCRDGVNDFSCTCPPGYTGRNC; listed as Homo sapiens)
- MIC (μg/mL) P. mirabilis [1, 13]: 12.5 µg/mL
- MIC (μg/mL) K. pneumonia [2, 14]: 50 µg/mL
- MIC (μg/mL) E. cloacae [3, 15]: 25 µg/mL
- MIC (μg/mL) S. marcescens [4, 16]: 12.5 µg/mL
- MIC (μg/mL) P. aeruginosa [5, 17]: 25 µg/mL
- MIC (μg/mL) E. coli BL21 [6, 18]: 12.5 µg/mL
- MIC (μg/mL) C. diversus [7, 19]: 25 µg/mL
- MIC [8]: 50 µg/mL
- MIC (μg/mL) M. catarrhalis [9, 20]: 50 µg/mL
- MIC (μg/mL) A. hydrophila [10, 21]: 12.5 µg/mL
- MIC (μg/mL) P. vulgaris [11, 22]: 50 µg/mL
